Laboratory results reported in ChEMBL document CHEMBL3885861, “Open TG-GATES”.

Species on record: Rattus norvegicus
Assay: Open TG-GATES - Regimen: Daily Repeat
Assay type: toxicity, organism-based, Sprague-Dawley
Design: regimen Daily Repeat, gender Male, age 6 weeks
Details: in vivo, po, 600 mg/kg, route gavage, dose level High; for APTT / Bas / Eos / Fbg / Hb / Ht / Lym / MCH / MCHC / MCV / Mono / Neu / PT / Plat / RBC / Ret / WBC: tissue Blood; for KIDNEY_L / KIDNEY_R / KIDNEY_TOTAL: tissue Kidney; for LIVER: tissue Liver; for A/G / ALP / ALT / AST / BUN / CRE / Ca / Cl / DBIL / GLC / IP / K / LDH / Na / PL / RALB / TBIL / TC / TG / TP / gamma-GTP: tissue Plasma

Work on `CCOC(=O)[C@H](CCc1ccccc1)N[C@@H](C)C(=O)N1CCC[C@H]1C(=O)O` yielded a TERMINAL_BW (72 h, time 3 day) of 244.3 g, an APTT (72 h, time 3 day) of 16 s and a Bas (72 h, time 3 day) of 0%. For the same molecule, the Eos (72 h, time 3 day) was 1.4%, the Fbg (72 h, time 3 day) was 232.8 mg/dL and the Hb (72 h, time 3 day) was 13 g/dL. The Ht (72 h, time 3 day) was 38.8%, the Lym (72 h, time 3 day) was 79.6% and the MCH (72 h, time 3 day) was 20.9 pg. It also gave an MCHC (72 h, time 3 day) of 33.4%, an MCV (72 h, time 3 day) of 62.5 fL and a Mono (72 h, time 3 day) of 6.6%. It also gave a Neu (72 h, time 3 day) of 12.2%, a PT (72 h, time 3 day) of 11.6 s and a Plat (72 h, time 3 day) of 116.5 x10_4/uL. For the same molecule, the RBC (72 h, time 3 day) was 620.6 x10_4/ul, the Ret (72 h, time 3 day) was 4.9% and the WBC (72 h, time 3 day) was 116.9 x10_2/uL. It also gave a KIDNEY_L (72 h, time 3 day) of 1 g, a KIDNEY_R (72 h, time 3 day) of 1.1 g and a KIDNEY_TOTAL (72 h, time 3 day) of 2.1 g. It also gave an LIVER (72 h, time 3 day) of 11.4 g, an A/G (72 h, time 3 day) of 1.8 and an ALP (72 h, time 3 day) of 892.2 IU/L. For the same molecule, the ALT (72 h, time 3 day) was 33.2 IU/L, the AST (72 h, time 3 day) was 58.2 IU/L and the BUN (72 h, time 3 day) was 25.2 mg/dL. The CRE (72 h, time 3 day) was 0.5 mg/dL, the Ca (72 h, time 3 day) was 11 mg/dL and the Cl (72 h, time 3 day) was 104 meq/L. The DBIL (72 h, time 3 day) was 0.02 mg/dL, the GLC (72 h, time 3 day) was 193.2 mg/dL and the IP (72 h, time 3 day) was 8.9 mg/dL. The K (72 h, time 3 day) was 4.9 meq/L, the LDH (72 h, time 3 day) was 83.6 IU/L and the Na (72 h, time 3 day) was 138.8 meq/L. It also gave a PL (72 h, time 3 day) of 154.2 mg/dL, an RALB (72 h, time 3 day) of 3.8 g/dL and a TBIL (72 h, time 3 day) of 0.3 mg/dL. It also gave a TC (72 h, time 3 day) of 85.8 mg/dL, a TG (72 h, time 3 day) of 93.6 mg/dL and a TP (72 h, time 3 day) of 5.9 g/dL. It also gave a gamma-GTP (72 h, time 3 day) of 1.4 IU/L, a TERMINAL_BW ([…], time 7 day) of 266.1 g and a TERMINAL_BW ([…], time 14 day) of 298.8 g. It also gave a TERMINAL_BW ([…], time 28 day) of 358.5 g, an APTT ([…], time 7 day) of 15.8 s and a Bas ([…], time 7 day) of 0%. It also gave an Eos ([…], time 7 day) of 1.2%, a Fbg ([…], time 7 day) of 228.2 mg/dL and a Hb ([…], time 7 day) of 12.5 g/dL. The Ht ([…], time 7 day) was 37.8%, the Lym ([…], time 7 day) was 78.2% and the MCH ([…], time 7 day) was 21.1 pg. For the same molecule, the MCHC ([…], time 7 day) was 33.2%, the MCV ([…], time 7 day) was 63.8 fL and the Mono ([…], time 7 day) was 6.4%. The Neu ([…], time 7 day) was 14.8%, the PT ([…], time 7 day) was 11.7 s and the Plat ([…], time 7 day) was 110 x10_4/uL. For the same molecule, the RBC ([…], time 7 day) was 593.8 x10_4/ul, the Ret ([…], time 7 day) was 3.8% and the WBC ([…], time 7 day) was 113.9 x10_2/uL. The APTT ([…], time 14 day) was 16.5 s, the Bas ([…], time 14 day) was 0% and the Eos ([…], time 14 day) was 1.2%. The Fbg ([…], time 14 day) was 232.2 mg/dL, the Hb ([…], time 14 day) was 12.6 g/dL and the Ht ([…], time 14 day) was 37.8%. The Lym ([…], time 14 day) was 80%, the MCH ([…], time 14 day) was 20.7 pg and the MCHC ([…], time 14 day) was 33.4%. For the same molecule, the MCV ([…], time 14 day) was 61.9 fL, the Mono ([…], time 14 day) was 4.2% and the Neu ([…], time 14 day) was 14.4%. It also gave a PT ([…], time 14 day) of 11.7 s, a Plat ([…], time 14 day) of 102.3 x10_4/uL and an RBC ([…], time 14 day) of 611.2 x10_4/ul. For the same molecule, the Ret ([…], time 14 day) was 3.3%, the WBC ([…], time 14 day) was 122.6 x10_2/uL and the APTT ([…], time 28 day) was 16 s. The Bas ([…], time 28 day) was 0%, the Eos ([…], time 28 day) was 1% and the Fbg ([…], time 28 day) was 249.8 mg/dL. It also gave a Hb ([…], time 28 day) of 13.9 g/dL, a Ht ([…], time 28 day) of 41.5% and a Lym ([…], time 28 day) of 84.2%. The MCH ([…], time 28 day) was 19.4 pg, the MCHC ([…], time 28 day) was 33.5% and the MCV ([…], time 28 day) was 57.9 fL. The Mono ([…], time 28 day) was 4.8%, the Neu ([…], time 28 day) was 9.8% and the PT ([…], time 28 day) was 11.6 s. For the same molecule, the Plat ([…], time 28 day) was 114.3 x10_4/uL, the RBC ([…], time 28 day) was 717.4 x10_4/ul and the Ret ([…], time 28 day) was 5%. It also gave a WBC ([…], time 28 day) of 148.4 x10_2/uL, a KIDNEY_L ([…], time 7 day) of 1.2 g and a KIDNEY_R ([…], time 7 day) of 1.3 g. It also gave a KIDNEY_TOTAL ([…], time 7 day) of 2.5 g, a KIDNEY_L ([…], time 14 day) of 1.3 g and a KIDNEY_R ([…], time 14 day) of 1.3 g. The KIDNEY_TOTAL ([…], time 14 day) was 2.7 g, the KIDNEY_L ([…], time 28 day) was 1.7 g and the KIDNEY_R ([…], time 28 day) was 1.7 g. For the same molecule, the KIDNEY_TOTAL ([…], time 28 day) was 3.4 g, the LIVER ([…], time 7 day) was 12.4 g and the LIVER ([…], time 14 day) was 13 g. For the same molecule, the LIVER ([…], time 28 day) was 14.8 g, the A/G ([…], time 7 day) was 1.9 and the ALP ([…], time 7 day) was 795.8 IU/L. For the same molecule, the ALT ([…], time 7 day) was 26.8 IU/L, the AST ([…], time 7 day) was 59 IU/L and the BUN ([…], time 7 day) was 40.4 mg/dL. For the same molecule, the CRE ([…], time 7 day) was 0.6 mg/dL, the Ca ([…], time 7 day) was 10.6 mg/dL and the Cl ([…], time 7 day) was 105.2 meq/L. The DBIL ([…], time 7 day) was 0.002 mg/dL, the GLC ([…], time 7 day) was 199.6 mg/dL and the IP ([…], time 7 day) was 8 mg/dL. For the same molecule, the K ([…], time 7 day) was 5.1 meq/L, the LDH ([…], time 7 day) was 97 IU/L and the Na ([…], time 7 day) was 137.4 meq/L. The PL ([…], time 7 day) was 144 mg/dL, the RALB ([…], time 7 day) was 3.7 g/dL and the TBIL ([…], time 7 day) was 0.4 mg/dL. The TC ([…], time 7 day) was 80.6 mg/dL, the TG ([…], time 7 day) was 85.2 mg/dL and the TP ([…], time 7 day) was 5.7 g/dL. The gamma-GTP ([…], time 7 day) was 1.2 IU/L, the A/G ([…], time 14 day) was 1.8 and the ALP ([…], time 14 day) was 654.8 IU/L. For the same molecule, the ALT ([…], time 14 day) was 26.8 IU/L, the AST ([…], time 14 day) was 58.6 IU/L and the BUN ([…], time 14 day) was 38.2 mg/dL. The CRE ([…], time 14 day) was 0.6 mg/dL, the Ca ([…], time 14 day) was 10.9 mg/dL and the Cl ([…], time 14 day) was 104.4 meq/L. The DBIL ([…], time 14 day) was 0.006 mg/dL, the GLC ([…], time 14 day) was 191 mg/dL and the IP ([…], time 14 day) was 8.9 mg/dL. The K ([…], time 14 day) was 4.8 meq/L, the LDH ([…], time 14 day) was 90.4 IU/L and the Na ([…], time 14 day) was 137 meq/L. For the same molecule, the PL ([…], time 14 day) was 149 mg/dL, the RALB ([…], time 14 day) was 3.9 g/dL and the TBIL ([…], time 14 day) was 0.3 mg/dL. For the same molecule, the TC ([…], time 14 day) was 78.8 mg/dL, the TG ([…], time 14 day) was 81.2 mg/dL and the TP ([…], time 14 day) was 6.1 g/dL. The gamma-GTP ([…], time 14 day) was 1.2 IU/L, the A/G ([…], time 28 day) was 1.7 and the ALP ([…], time 28 day) was 553.2 IU/L. It also gave an ALT ([…], time 28 day) of 23.8 IU/L, an AST ([…], time 28 day) of 65.2 IU/L and a BUN ([…], time 28 day) of 44 mg/dL. The CRE ([…], time 28 day) was 0.7 mg/dL, the Ca ([…], time 28 day) was 10.9 mg/dL and the Cl ([…], time 28 day) was 105.2 meq/L. For the same molecule, the DBIL ([…], time 28 day) was 0.062 mg/dL, the GLC ([…], time 28 day) was 195.4 mg/dL and the IP ([…], time 28 day) was 7.4 mg/dL. For the same molecule, the K ([…], time 28 day) was 4.9 meq/L, the LDH ([…], time 28 day) was 100.2 IU/L and the Na ([…], time 28 day) was 137.6 meq/L. For the same molecule, the PL ([…], time 28 day) was 150.2 mg/dL, the RALB ([…], time 28 day) was 3.9 g/dL and the TBIL ([…], time 28 day) was 0.3 mg/dL. The TC ([…], time 28 day) was 75.4 mg/dL, the TG ([…], time 28 day) was 97.8 mg/dL and the TP ([…], time 28 day) was 6.1 g/dL. For the same molecule, the gamma-GTP ([…], time 28 day) was 1.8 IU/L.
